Test results published in US4806532A, “Inhibition of epithelial phosphate transport” (Mayo Foundation for Medical Education and Research, priority 1985, dated 1989).
Several values for one entry are separate records, joined by “and”; a condition that tells them apart may be missing. Equal values may be shown once. Where a name gives a salt, the structure may show the parent alone.

How the values were obtained:
Na-Pi cotransporter = target: T1, Na-Pi cotransporter (Rattus norvegicus, UniProt Q06496); assay: Reversibility of TPFA inhibition: 32Pi uptake of BBMV after preincubation and washout; assay type: biochemical
T1 construct: from tissue; host or cells: rat renal cortex, brush border membrane vesicles
T1 sequence (Q06496 1-637): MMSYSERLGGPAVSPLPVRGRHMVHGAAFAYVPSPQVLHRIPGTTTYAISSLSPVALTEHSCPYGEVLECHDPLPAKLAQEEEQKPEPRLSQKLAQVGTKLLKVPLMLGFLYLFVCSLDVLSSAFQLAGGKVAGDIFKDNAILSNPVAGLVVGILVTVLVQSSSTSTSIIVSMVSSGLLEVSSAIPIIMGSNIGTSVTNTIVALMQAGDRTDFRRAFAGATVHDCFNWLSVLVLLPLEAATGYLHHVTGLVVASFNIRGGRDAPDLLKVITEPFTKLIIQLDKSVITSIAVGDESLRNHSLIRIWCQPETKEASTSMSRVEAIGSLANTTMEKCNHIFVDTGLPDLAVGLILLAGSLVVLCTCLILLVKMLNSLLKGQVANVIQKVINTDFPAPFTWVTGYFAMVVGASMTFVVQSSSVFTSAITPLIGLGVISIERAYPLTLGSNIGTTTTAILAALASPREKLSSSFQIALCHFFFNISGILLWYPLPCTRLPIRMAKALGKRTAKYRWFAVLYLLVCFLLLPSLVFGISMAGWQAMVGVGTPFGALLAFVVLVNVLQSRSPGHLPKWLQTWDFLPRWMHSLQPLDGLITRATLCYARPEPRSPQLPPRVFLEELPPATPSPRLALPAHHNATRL
Experimental: The reversibility of the inhibition of ^32 Pi transport across BBMV by TPFA was explored using the following protocol. […] The suspensions of BBMV were incubated for 10 min at room temperature. At the end of incubation period, incubation mixtures were diluted with 10 ml of ice-cold MTH-medium, resuspended and centrifuged at 35,000×g for 20 min. The supernatant was discarded and BBMV pellet was suspended in MTH-medium and then assayed for Na^+ -gradient-dependent ^32 Pi uptake.

BBM enzymes APase = target: T2, BBM enzymes APase (Rattus norvegicus, UniProt P08289); assay: Effect on BBM enzyme APase (data not shown); assay type: biochemical
T2 construct: from tissue; host or cells: renal brush border membrane vesicles (rat inferred)
T2 sequence (P08289 18-502 limits assumed): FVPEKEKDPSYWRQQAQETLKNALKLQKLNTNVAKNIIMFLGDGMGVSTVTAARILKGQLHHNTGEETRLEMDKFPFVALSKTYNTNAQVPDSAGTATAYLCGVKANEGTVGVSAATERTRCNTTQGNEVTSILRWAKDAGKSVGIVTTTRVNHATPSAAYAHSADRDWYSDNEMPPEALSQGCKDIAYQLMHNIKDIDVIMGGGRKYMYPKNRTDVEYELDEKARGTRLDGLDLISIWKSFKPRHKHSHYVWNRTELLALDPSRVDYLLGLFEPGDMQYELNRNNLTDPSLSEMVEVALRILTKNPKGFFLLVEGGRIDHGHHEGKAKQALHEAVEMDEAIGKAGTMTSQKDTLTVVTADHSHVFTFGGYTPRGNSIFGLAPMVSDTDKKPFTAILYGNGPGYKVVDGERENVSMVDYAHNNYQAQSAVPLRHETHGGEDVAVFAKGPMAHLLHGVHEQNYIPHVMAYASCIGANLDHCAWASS

## O=C(O)P(=O)(O)O [TPFA, Phosphonoformic acid, trisodium salt hexahydrate]
Na-Pi cotransporter; BBMV preincubated with 5 mM TPFA 10 min, diluted 1:10, washed, Experiments 1 and 2
  32Pi uptake 120 min, TPFA-preincubated: 326 ± 5 pmoles/mg protein and 293 ± 3 pmoles/mg protein
Na-Pi cotransporter; BBMV preincubated with 5 mM TPFA 10 min, diluted 1:10, washed, Experiments 1 and 2, mean ± SEM
  32Pi uptake 20 sec, TPFA-preincubated: 1240 ± 25 pmoles/mg protein and 1128 ± 38 pmoles/mg protein
Na-Pi cotransporter; versus control BBMV not exposed to TPFA
  rate of Na+-gradient-dependent BBMV uptake of Pi after washout of TPFA by dilution: indistinguishable from control BBMV
BBM enzymes APase
  effect on BBM enzyme APase: without inhibitory effect
